22 compounds from patent publication US9650339B2, “Inhibitors of histone demethylases” (Gilead Sciences, Inc., priority 2013, dated 2017) can be followed below.

Holding throughout (assay type): biochemical
One assay concerns the target T1, KDM5C (JARID1C) (Homo sapiens, UniProt P41229).
T1 construct: 2-1560; purchased BPS; host or cells: Bac (baculovirus system)
Put plainly: Histone lysine demethylase AlphaLISA assay, KDM5C. Conditions: read-out: KDM5C HDME Inhibition IC50. The method, boiled down: (§1)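 Steps: enzyme equilibrated 10 min in buffer; compounds in 3% DMSO solution added, 10 min; substrate mix added (peptide, 25 μM L-Asc, 10 μM α-KG), room temperature; acceptor beads, then streptavidin donor beads, dark incubations; plate read.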
(In general: Bead proximity is the source of the signal in Alpha formats.)

For a further assay, the target named is T2, KDM3A (JMJD1A) (Homo sapiens, UniProt Q9Y4C1).
T2 construct: 2-end; purchased BPS Bioscience, US; host or cells: Bac (baculovirus system)
T2 sequence (Q9Y4C1 2-1321 limits assumed): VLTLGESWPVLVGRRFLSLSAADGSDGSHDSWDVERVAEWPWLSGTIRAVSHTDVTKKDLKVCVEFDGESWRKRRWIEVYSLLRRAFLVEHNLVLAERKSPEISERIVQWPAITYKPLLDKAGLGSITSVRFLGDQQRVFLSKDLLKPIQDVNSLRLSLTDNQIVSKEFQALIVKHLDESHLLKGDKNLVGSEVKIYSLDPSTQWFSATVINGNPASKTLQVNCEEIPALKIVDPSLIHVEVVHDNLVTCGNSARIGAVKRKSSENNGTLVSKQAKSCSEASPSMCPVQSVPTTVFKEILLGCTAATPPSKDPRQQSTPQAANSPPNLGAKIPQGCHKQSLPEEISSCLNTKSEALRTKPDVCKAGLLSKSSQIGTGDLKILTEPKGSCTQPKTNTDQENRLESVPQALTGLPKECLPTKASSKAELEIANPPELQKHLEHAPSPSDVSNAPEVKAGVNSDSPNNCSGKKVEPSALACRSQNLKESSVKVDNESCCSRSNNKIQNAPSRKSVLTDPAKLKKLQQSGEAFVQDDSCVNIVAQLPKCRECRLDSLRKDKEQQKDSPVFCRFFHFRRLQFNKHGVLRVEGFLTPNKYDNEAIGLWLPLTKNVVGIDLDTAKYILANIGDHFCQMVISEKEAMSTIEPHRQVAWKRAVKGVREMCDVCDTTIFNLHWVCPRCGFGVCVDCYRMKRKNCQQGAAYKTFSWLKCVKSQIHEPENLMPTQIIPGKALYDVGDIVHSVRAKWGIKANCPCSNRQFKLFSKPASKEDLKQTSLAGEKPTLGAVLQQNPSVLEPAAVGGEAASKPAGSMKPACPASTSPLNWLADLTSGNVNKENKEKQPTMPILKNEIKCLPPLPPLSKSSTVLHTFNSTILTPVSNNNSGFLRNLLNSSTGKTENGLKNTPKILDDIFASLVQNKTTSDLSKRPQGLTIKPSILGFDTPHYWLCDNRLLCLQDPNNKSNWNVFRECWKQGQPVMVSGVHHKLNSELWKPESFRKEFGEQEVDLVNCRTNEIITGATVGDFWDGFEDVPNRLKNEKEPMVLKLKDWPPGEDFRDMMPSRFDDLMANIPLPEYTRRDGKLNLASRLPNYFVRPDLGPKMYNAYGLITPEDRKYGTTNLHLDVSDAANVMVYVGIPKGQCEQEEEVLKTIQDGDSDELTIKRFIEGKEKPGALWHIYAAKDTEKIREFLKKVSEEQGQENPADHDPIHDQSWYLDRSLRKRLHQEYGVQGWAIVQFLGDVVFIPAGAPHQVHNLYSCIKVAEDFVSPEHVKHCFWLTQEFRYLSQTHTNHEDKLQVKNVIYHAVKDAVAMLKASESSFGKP
The experiment in a line: Histone lysine demethylase AlphaLISA assay, KDM3A. Conditions: read-out: KDM3 A HDME Inhibition IC50. The method, boiled down:
as §1

The target in the next assay is T3, KDM7 (PHF8) (Homo sapiens, UniProt Q9UPP1).
T3 construct: KDM7 (PHF8); BRIC; 1-1322; Bac
T3 sequence (Q9UPP1 37-440 limits assumed): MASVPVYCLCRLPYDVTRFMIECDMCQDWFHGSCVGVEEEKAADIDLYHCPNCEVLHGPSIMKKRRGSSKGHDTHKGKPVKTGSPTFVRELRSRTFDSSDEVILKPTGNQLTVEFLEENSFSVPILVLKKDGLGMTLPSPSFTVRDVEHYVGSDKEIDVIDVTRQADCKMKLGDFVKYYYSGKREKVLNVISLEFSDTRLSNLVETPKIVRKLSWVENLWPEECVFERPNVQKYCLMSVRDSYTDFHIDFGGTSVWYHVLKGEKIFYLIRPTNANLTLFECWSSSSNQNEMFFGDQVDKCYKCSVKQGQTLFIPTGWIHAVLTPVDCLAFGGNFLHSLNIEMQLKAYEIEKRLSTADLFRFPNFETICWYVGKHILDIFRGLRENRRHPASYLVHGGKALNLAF
Put plainly: Histone lysine demethylase AlphaLISA assay, KDM7. Particulars: read-out: PHF8 HDME Inhibition IC50. Summed up:
as §1

For the next assay, the target named is T4, KDM6B (JMJD3) (Homo sapiens, UniProt O15054).
T4 construct: 1043-end; purchased BPS; host or cells: Bac (baculovirus system)
T4 sequence (O15054 1043-1682 isoform O15054-1 limits assumed): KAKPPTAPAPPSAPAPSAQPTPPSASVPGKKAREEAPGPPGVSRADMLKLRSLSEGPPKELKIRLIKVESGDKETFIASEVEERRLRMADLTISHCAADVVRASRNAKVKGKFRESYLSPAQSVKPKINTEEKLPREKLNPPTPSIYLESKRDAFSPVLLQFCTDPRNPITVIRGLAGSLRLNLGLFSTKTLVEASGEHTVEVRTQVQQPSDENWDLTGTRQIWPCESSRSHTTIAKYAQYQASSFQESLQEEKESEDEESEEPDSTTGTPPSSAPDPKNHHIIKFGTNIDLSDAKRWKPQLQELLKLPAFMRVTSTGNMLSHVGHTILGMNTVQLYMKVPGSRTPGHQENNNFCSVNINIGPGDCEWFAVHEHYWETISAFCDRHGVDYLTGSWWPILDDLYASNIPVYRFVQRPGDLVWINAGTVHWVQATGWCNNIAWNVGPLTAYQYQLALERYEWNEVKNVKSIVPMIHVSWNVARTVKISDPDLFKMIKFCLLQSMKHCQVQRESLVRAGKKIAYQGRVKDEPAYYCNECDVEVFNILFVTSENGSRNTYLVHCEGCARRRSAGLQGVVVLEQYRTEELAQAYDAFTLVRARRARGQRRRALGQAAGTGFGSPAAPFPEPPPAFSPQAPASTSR
Put plainly: Histone lysine demethylase AlphaLISA assay, KDM6B. Particulars: read-out: KDM6B HDME Inhibition IC50. Summed up: as §1

The IC50 is the concentration needed to halve the response being measured.

T1 sequence (P41229 2-1560): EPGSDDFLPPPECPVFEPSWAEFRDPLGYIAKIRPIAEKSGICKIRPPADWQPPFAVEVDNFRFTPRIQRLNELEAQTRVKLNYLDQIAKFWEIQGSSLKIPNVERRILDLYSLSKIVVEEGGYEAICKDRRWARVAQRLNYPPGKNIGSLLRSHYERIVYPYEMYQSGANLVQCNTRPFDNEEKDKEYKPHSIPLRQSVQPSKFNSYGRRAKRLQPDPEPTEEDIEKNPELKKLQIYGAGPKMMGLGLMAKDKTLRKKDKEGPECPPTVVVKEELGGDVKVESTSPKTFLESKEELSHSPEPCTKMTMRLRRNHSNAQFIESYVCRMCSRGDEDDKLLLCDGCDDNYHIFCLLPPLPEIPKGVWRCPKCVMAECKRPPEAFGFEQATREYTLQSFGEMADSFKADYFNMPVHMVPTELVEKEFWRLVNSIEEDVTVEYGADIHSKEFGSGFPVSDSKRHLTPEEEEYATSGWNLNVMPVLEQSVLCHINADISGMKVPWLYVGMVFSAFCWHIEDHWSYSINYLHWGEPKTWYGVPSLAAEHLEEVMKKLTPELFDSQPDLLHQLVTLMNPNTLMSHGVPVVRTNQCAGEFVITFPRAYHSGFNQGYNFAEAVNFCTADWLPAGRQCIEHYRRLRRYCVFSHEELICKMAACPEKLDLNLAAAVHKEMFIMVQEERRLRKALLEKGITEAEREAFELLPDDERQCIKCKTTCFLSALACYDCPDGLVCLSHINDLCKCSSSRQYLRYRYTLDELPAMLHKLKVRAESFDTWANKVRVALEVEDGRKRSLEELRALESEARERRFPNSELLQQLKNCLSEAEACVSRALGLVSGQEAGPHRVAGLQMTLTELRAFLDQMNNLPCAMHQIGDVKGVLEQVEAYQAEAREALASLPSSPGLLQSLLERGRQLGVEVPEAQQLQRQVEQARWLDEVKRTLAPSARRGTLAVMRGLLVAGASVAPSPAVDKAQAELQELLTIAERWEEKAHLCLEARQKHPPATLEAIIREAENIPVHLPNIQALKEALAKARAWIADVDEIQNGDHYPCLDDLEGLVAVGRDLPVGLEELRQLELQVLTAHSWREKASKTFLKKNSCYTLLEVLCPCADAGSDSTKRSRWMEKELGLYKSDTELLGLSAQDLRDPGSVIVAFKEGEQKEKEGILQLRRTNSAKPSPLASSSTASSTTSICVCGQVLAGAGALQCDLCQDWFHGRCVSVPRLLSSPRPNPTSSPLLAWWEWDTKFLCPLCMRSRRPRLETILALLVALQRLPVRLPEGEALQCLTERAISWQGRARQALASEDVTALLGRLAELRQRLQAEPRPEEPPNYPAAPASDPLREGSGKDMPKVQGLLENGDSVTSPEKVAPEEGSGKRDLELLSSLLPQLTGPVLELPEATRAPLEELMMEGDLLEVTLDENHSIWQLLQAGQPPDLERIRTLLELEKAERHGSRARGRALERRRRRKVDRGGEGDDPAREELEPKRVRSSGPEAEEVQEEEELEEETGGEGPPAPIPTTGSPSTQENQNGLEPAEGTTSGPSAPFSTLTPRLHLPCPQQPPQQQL

For `CCCCCCCC/N=C/c1ccnc(CNCC(=O)N(CC)CC)c1` [Compound 58, N,N-diethyl-2-[({4-[(octylimino)methyl]-pyridin-2-yl}methyl)amino]-acetamide], the concentration for half-maximal inhibition (IC50) on KDM5C (JARID1C) was below 0.25 µM; on KDM3A (JMJD1A), above 2.5 µM; on KDM7 (PHF8), above 2.5 µM; on KDM6B (JMJD3), above 2.5 µM.
In the case of `CCN(CC)CCCCNCc1cc(/C=N/CCOC)ccn1` [Compound 60, [4-(diethylamino)butyl]-({4-[[(2-methoxyethyl)imino]-methyl]pyridin-2-yl}methyl)amine], the 50% inhibitory concentration (IC50) is below 0.25 µM on KDM5C (JARID1C), above 2.5 µM on KDM3A (JMJD1A), 0.25 to 2.5 µM on KDM7 (PHF8) and above 2.5 µM on KDM6B (JMJD3).
Turning to `CCN(CC)CCCCNCc1cc(/C=N/CCO)ccn1` [Compound 61, 2-[{[2-({[4-(diethylamino)-butyl]amino}-methyl)pyridin-4-yl]methylidene}-amino]ethan-1-ol], the IC50 at KDM5C (JARID1C) is below 0.25 µM; on KDM3A (JMJD1A), above 2.5 µM; at KDM7 (PHF8), above 2.5 µM; at KDM6B (JMJD3) it was above 2.5 µM.
For the compound `CCN(CC)CCCCNCc1cc(/C=N/CC(F)(F)C(F)(F)F)ccn1` [Compound 62, {[2-({[4-(diethylamino)-butyl]amino}methyl)pyridin-4-yl]methylidene} (2,2,3,3,3-pentafluoropropyl)-amine], the IC50 was below 0.25 µM at KDM5C (JARID1C), above 2.5 µM on KDM3A (JMJD1A), above 2.5 µM at KDM7 (PHF8) and above 2.5 µM at KDM6B (JMJD3).
In the case of `CON=Cc1ccnc(CNCCCN(C)C)c1` [Compound 64, [3-(dimethylamino)-propyl]({4-[(methoxyimino)-methyl]pyridin-2-yl}methyl)amine], the IC50 on KDM5C (JARID1C), at KDM3A (JMJD1A), on KDM7 (PHF8) and at KDM6B (JMJD3) was above 2.5 µM in each case.
In the case of `CCN(CC)CCCCNCc1cc(C2NCCN2C)ccn1` (stereo not shown) [Compound 65, [4-(diethylamino)-butyl]({[4-(1-methylimidazolidin-2-yl)pyridin-2-yl]methyl})amine], the IC50 at KDM5C (JARID1C) was below 0.25 µM; on KDM3A (JMJD1A), above 2.5 µM; on KDM7 (PHF8), above 2.5 µM; at KDM6B (JMJD3), above 2.5 µM.
In the case of `CCN(CCN(C)C)C(=O)CNCc1cc(/C=N/CCO)ccn1` [Compound 66], the half-maximal inhibitory concentration (IC50) at KDM5C (JARID1C) is below 0.25 µM; at KDM3A (JMJD1A), above 2.5 µM; at KDM7 (PHF8) it was 0.25 to 2.5 µM; at KDM6B (JMJD3) it was above 2.5 µM.
`CN(C)C/C=C/CNCc1cc(C=O)ccn1` [Compound 98, 2-({[(2E)-4-(dimethylamino)but-2-en-1-yl]amino}-methyl)pyridine-4-carbaldehyde]: the IC50 on KDM5C (JARID1C) was below 0.25 µM; at KDM3A (JMJD1A), above 2.5 µM; on KDM7 (PHF8) it was above 2.5 µM; at KDM6B (JMJD3) it was above 2.5 µM.
Turning to `CN(C)C/C=C\CNCc1cc(C=O)ccn1` [Compound 99, 2-({[(2Z)-4-(dimethylamino)-but-2-en-1-yl]amino}methyl)-pyridine-4-carbaldehyde], the half-inhibitory concentration (IC50) on KDM5C (JARID1C) is below 0.25 µM; on KDM3A (JMJD1A) it was above 2.5 µM; on KDM7 (PHF8), above 2.5 µM; at KDM6B (JMJD3) it was above 2.5 µM.
On to `CN1CCC(CNCc2cc(C=O)ccn2)CC1` [Compound 100, 2-({[(1-methyl-piperidin-4-yl)methyl]amino}-methyl)pyridine-4-carbaldehyde], for which the IC50 is below 0.25 µM at KDM5C (JARID1C), above 2.5 µM on KDM3A (JMJD1A), above 2.5 µM on KDM7 (PHF8) and above 2.5 µM at KDM6B (JMJD3).
For the compound `CCN(CCN(C)C)C(=O)CNCc1cc(C=O)ccn1` [Compound 101], the IC50 on KDM5C (JARID1C) is below 0.25 µM; on KDM3A (JMJD1A) it was above 2.5 µM; on KDM7 (PHF8), 0.25 to 2.5 µM; on KDM6B (JMJD3), above 2.5 µM.
For `O=Cc1ccnc(CNCC(=O)N2CCC[C@@H]2CN2CCCC2)c1` [Compound 102, 2-[({2-oxo-2-[(2R)-2-(pyrrolidin-1-ylmethyl)pyrrolidin-1-yl]ethyl}amino)-methyl]pyridine-4-carbaldehyde], the concentration for half-maximal inhibition (IC50) on KDM5C (JARID1C) was below 0.25 µM; at KDM3A (JMJD1A), above 2.5 µM; at KDM7 (PHF8), above 2.5 µM; at KDM6B (JMJD3) it was above 2.5 µM.
For the compound `CN1CCN(C(=O)CNCc2cc(C=O)ccn2)CC1` [Compound 103, 2-({[2-(4-methylpiperazin-1-yl)-2-oxoethyl]-amino}methyl)-pyridine-4-carbaldehyde], the IC50 is below 0.25 µM on KDM5C (JARID1C), above 2.5 µM at KDM3A (JMJD1A), above 2.5 µM on KDM7 (PHF8) and above 2.5 µM on KDM6B (JMJD3).
For `CCN1CCCC1CNC(=O)CNCc1cc(C=O)ccn1` (stereo not shown) [Compound 104, N-[(1-ethylpyrrolidin-2-yl)methyl]-2-{[(4-formylpyridin-2-yl)methyl]amino}-acetamide], the IC50 was below 0.25 µM at KDM5C (JARID1C), above 2.5 µM at KDM3A (JMJD1A), 0.25 to 2.5 µM on KDM7 (PHF8) and above 2.5 µM at KDM6B (JMJD3).
`O=Cc1ccnc(CNCC(=O)N2CCC(Cc3ccccc3)CC2)c1` [Compound 106, 2-({[2-(4-benzylpiperidin-1-yl)-2-oxoethyl]-amino}methyl)-pyridine-4-carbaldehyde]: the IC50 is above 2.5 µM on KDM5C (JARID1C), above 2.5 µM on KDM3A (JMJD1A), 0.25 to 2.5 µM at KDM7 (PHF8) and above 2.5 µM at KDM6B (JMJD3).
Turning to `CCN(CC)CCCCNCc1cc(C=O)ccn1` [Compound 107, 2-({[4-(diethylamino)-butyl]amino}-methyl)pyridine-4-carbaldehyde], the IC50 on KDM5C (JARID1C) is below 0.25 µM; at KDM3A (JMJD1A), above 2.5 µM; at KDM7 (PHF8) it was above 2.5 µM; on KDM6B (JMJD3), above 2.5 µM.
For the compound `CN(C)CCCCNCc1cc(C=O)ccn1` [Compound 108, 2-({[4-(dimethylamino)-butyl]amino}methyl)-pyridine-4-carbaldehyde], the half-maximal inhibitory concentration (IC50) at KDM5C (JARID1C) is below 0.25 µM; on KDM3A (JMJD1A) it was above 2.5 µM; at KDM7 (PHF8), above 2.5 µM; on KDM6B (JMJD3) it was above 2.5 µM.
`CN(C)CCNCc1cc(C=O)ccn1` [Compound 110, 2-({[2-(dimethylamino)-ethyl]amino}methyl)-pyridine-4-carbaldehyde]: the half-maximal inhibitory concentration (IC50) on KDM5C (JARID1C) was below 0.25 µM; on KDM3A (JMJD1A) it was above 2.5 µM; on KDM7 (PHF8) it was above 2.5 µM; at KDM6B (JMJD3), above 2.5 µM.
Take `O=Cc1ccnc(CNCCCN2CCCC2)c1` [Compound 111, 2-({[3-(pyrrolidin-1-yl)propyl]amino}-methyl)pyridine-4-carbaldehyde]: the concentration for half-maximal inhibition (IC50) on KDM5C (JARID1C) was below 0.25 µM; at KDM3A (JMJD1A), above 2.5 µM; on KDM7 (PHF8), above 2.5 µM; on KDM6B (JMJD3) it was above 2.5 µM.
Take `CCN(CC)CCCCNC(=O)CNCc1cc(C=O)ccn1` [Compound 112, N-[4-(diethylamino)-butyl]-2-{[(4-formylpyridin-2-yl)methyl]amino}-acetamide]: the IC50 at KDM5C (JARID1C) is below 0.25 µM; at KDM3A (JMJD1A), above 2.5 µM; at KDM7 (PHF8) it was below 0.25 µM; on KDM6B (JMJD3) it was above 2.5 µM.
Regarding `CN(C)CCCCCNCc1cc(C=O)ccn1` [Compound 114, 2-({[5-(dimethylamino)-pentyl]amino}methyl)-pyridine-4-carbaldehyde], the IC50 on KDM5C (JARID1C) is below 0.25 µM; at KDM3A (JMJD1A), above 2.5 µM; at KDM7 (PHF8), above 2.5 µM; at KDM6B (JMJD3), above 2.5 µM.
For the compound `CCN(CC)CCCCN(Cc1cc(C=O)ccn1)C(=O)C(F)(F)F` [Compound 115, N-[4-(diethylamino)butyl]-2,2,2-trifluoro-N-[(4-formylpyridin-2-yl)methyl]acetamide], the 50% inhibitory concentration (IC50) on KDM5C (JARID1C) is below 0.25 µM; on KDM3A (JMJD1A) it was above 2.5 µM; at KDM7 (PHF8), 0.25 to 2.5 µM; on KDM6B (JMJD3), above 2.5 µM.
